Tested on: T1, IaIAMT
T1 construct: full-length cDNA from leaf RNA, N-terminal MBP fusion (pCold-MBP), E. coli BL21(DE3), purified on gelatinized corn starch; MBP cleavage not mentioned
Assay: radiochemical methyltransferase assay, […]-SAM, ethyl acetate extraction, scintillation counting
Type: biochemical, Illicium anisatum
Details: co-substrate [Me-14C]-SAM; sodium phosphate pH 7.0; 25°C; 10 min; IAA 0–400 µM; MBP fusion; read-out: apparent Km

- Km: 122 ± 32.9 µM
SMILES: O=C(O)Cc1c[nH]c2ccccc12 [IAA, indole-3-acetic acid]
